Laboratory results reported in patent US10993957B2 (NuCana plc, priority 2011, dated 2021).
Where two headings read alike, the source gives them in different places.

Tests used:
Cem/TK^− = test: Cytostatic assay, thymidine kinase-deficient CEM/TK^− cells; assay type: cell-based, human; conditions: Homo sapiens, CEM-TK(-); for IC50: Table 6, read-out: IC50 Cem/TK^−; for CC50: Table 1, read-out: CC50 Cem/TK^−
L1210/TK^− = test: Cytostatic assay, thymidine kinase-deficient L1210/TK^− cells; assay type: cell-based, murine; conditions: Mus musculus; for CC50: L1210, Table 1, read-out: CC50 L1210/TK^−; for IC50: L1210, Table 6, read-out: IC50 L1210/TK^−
HeLa = test: Cytostatic assay, HeLa cells; assay type: cell-based; conditions: Homo sapiens, HeLa; for CC50: Table 1, read-out: CC50 HeLa; for IC50: Table 6, read-out: IC50 HeLa
Text: (§1) The cell lines employed were L1210/0 (a leukemia cell line), FM3A/0 (a breast cancer cell line), Cem/0 (an acute lymphoblastic leukemia cell line) and HeLa (a cervical cell line).

FM3A/0 = test: Cytostatic assay, FM3A/0 cells; assay type: cell-based; conditions: Mus musculus
Description: The samples were assayed for biological activity versus a range of tumour cell lines with data recorded in Table 1 below. […] The cell lines employed were L1210/0 (a leukemia cell line), FM3A/0 (a breast cancer cell line), Cem/0 (an acute lymphoblastic leukemia cell line) and HeLa (a cervical cell line).

Cem/0 = test: Cytostatic assay, CEM/0 cells; assay type: cell-based, human; conditions: Homo sapiens, CCRF-CEM; for CC50: Table 1, read-out: CC50 Cem/0; for IC50: Table 6, read-out: IC50 Cem/0
Text: as §1

L1210/0 = test: Cytostatic assay, L1210/0 cells; assay type: cell-based, murine; conditions: Mus musculus; for IC50: read-out: IC50 L1210/0
Text: as §1

HeLa/TK^− = test: Cytostatic assay, HeLa/TK^− cells; assay type: cell-based; conditions: Homo sapiens, HeLa; for IC50: Table 6, read-out: IC50 HeLa/TK^−; for CC50: Table 1, read-out: CC50 HeLa/TK^−
Text: as §1

L1210.Hyor = test: Cytostatic assay, Mycoplasma hyorhinis-infected L1210 cells; conditions: for IC50: L1210, read-out: IC50 L1210.Hyor; for IC50(L1210.Hyor)/IC50(L1210/0): Table 7
Summary of the method: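 Suspension L1210/0 murine leukaemia cells infected with M. hyorhinis, seeded at 60,000 cells/well with test compound in DMEM/10% FBS and grown 48 h at 37 °C, 5% CO2. Cell number counted by Coulter counter; activity also expressed as % retained versus uninfected cells.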

FM3A/TK^− = test: Cytostatic assay, FM3A/TK^− cells; assay type: cell-based; conditions: Mus musculus, read-out: CC50 FM3A/TK^−
Cem/hEnt-0 = test: Cytostatic assay, CEM cells lacking the hEnt1 transporter; assay type: cell-based; conditions: Homo sapiens, CCRF-CEM, read-out: IC50 Cem/hEnt-0
Text: (§2) Data are mean (±SD) of at least two to four independent experiments. Table 8 identifies the phosphoramidate motif of compounds embodying the present invention, as discussed above with respect to Table 6, but with “Naph” standing for 1-naphthyl.

Cem/hEnt-1 = test: Cytostatic assay, CEM cells containing the hEnt1 transporter; assay type: cell-based
Text: as §2

[1] = L1210/0, Table 1, read-out: CC50 L1210/0

## O=c1[nH]cc(F)c(=O)[nH]1 [5-FU, 5-Fluorouracil, reference compound]
Cem/TK^−
  IC50: 12 ± 1 µM
L1210/TK^−
  CC50: 320 ± 310 nM
  IC50: 320 ± 310 nM
HeLa
  CC50: 540 ± 120 nM
  IC50: 540 ± 120 nM
FM3A/0; FM3A/0, Table 1, read-out: CC50 FM3A/0
  CC50: 180 ± 20 nM
Cem/0
  CC50: 18000 ± 5000 nM
  IC50: 18000 ± 5000 nM
L1210/0; [1]
  CC50: 330 ± 170 nM
L1210/0; L1210/0, Table 6
  IC50: 330 ± 170 nM
HeLa/TK^−
  IC50: 0.23 ± 0.01 µM

## CCOC(=O)[C@H](C)NP(=O)(OC[C@H]1O[C@@H](n2cc(F)c(=O)[nH]c2=O)CC1O)Oc1ccccc1 (some centres unmarked) [CPF 383]
Cem/TK^−
  CC50: 14 µM
  IC50: 14 µM
L1210/TK^−
  CC50: 940 ± 180 nM
  IC50: 940 ± 180 nM
L1210.Hyor; Mus musculus
  IC50: 540 ± 120 nM
L1210.Hyor
  IC50(L1210.Hyor)/IC50(L1210/0): 5
FM3A/TK^−
  CC50: 4.1 ± 2 µM
HeLa
  CC50: 480 ± 190 nM
  IC50: 480 ± 190 nM
FM3A/0; FM3A/0, read-out: CC50 FM3A/0
  CC50: 640 ± 570 nM
Cem/0
  CC50: 920 ± 110 nM
  IC50: 920 ± 110 nM
L1210/0; [1]
  CC50: 130 ± 40 nM
L1210/0; L1210/0, Table 6
  IC50: 130 ± 40 nM
L1210/0; L1210/0, Table 7
  IC50: 110 ± 2.1 nM
HeLa/TK^−
  CC50: 9.8 ± 1.4 µM
  IC50: 9.8 ± 1.4 µM

## CC(C)OC(=O)[C@H](C)NP(=O)(OC[C@H]1O[C@@H](n2cc(F)c(=O)[nH]c2=O)CC1O)Oc1ccccc1 (stereo partly drawn) [CPF 384, 5-Fluoro-2′deoxyuridine-5′-O-[phenyl(isopropoxy-L-alaninyl)] phosphate]
Cem/TK^−
  CC50: 30 ± 10 µM
  IC50: 30 ± 10 µM
L1210/TK^−
  CC50: 1100 ± 100 nM
  IC50: 1100 ± 100 nM
L1210.Hyor; Mus musculus
  IC50: 700 ± 100 nM
L1210.Hyor
  IC50(L1210.Hyor)/IC50(L1210/0): 14
FM3A/TK^−
  CC50: 13 ± 1 µM
HeLa
  CC50: 710 ± 150 nM
  IC50: 710 ± 150 nM
FM3A/0; FM3A/0, read-out: CC50 FM3A/0
  CC50: 360 ± 250 nM
Cem/0
  CC50: 1000 ± 100 nM
  IC50: 1000 ± 100 nM
L1210/0; [1]
  CC50: 76 ± 22 nM
L1210/0; L1210/0, Table 6
  IC50: 76 ± 22 nM
L1210/0; L1210/0, Table 7
  IC50: 50 ± 13 nM
HeLa/TK^−
  CC50: 25 ± 11 µM
  IC50: 25 ± 11 µM

## CC(C)(NP(=O)(OC[C@H]1O[C@@H](n2cc(F)c(=O)[nH]c2=O)CC1O)Oc1ccccc1)C(=O)OCc1ccccc1 (stereo partly drawn) [CPF 393, 5-Fluoro-2′deoxyuridine-5′-O-[phenyl (benzoxy-α,α-dimethylglycine)]phosphate]
Cem/TK^−
  CC50: 4.8 ± 0.7 µM
  IC50: 4.8 ± 0.7 µM
Cem/hEnt-0
  IC50: 1200 ± 110 nM
L1210/TK^−
  CC50: 180 ± 50 nM
  IC50: 180 ± 50 nM
L1210.Hyor; CC50 L1210 × 100 ÷ CC50 L1210/Hyor
  % Retention: 145%
L1210.Hyor; Mus musculus, L1210, read-out: CC50 L1210/Hyor
  CC50: 20 nM
L1210.Hyor; Mus musculus
  IC50: 20 ± 2 nM
L1210.Hyor
  IC50(L1210.Hyor)/IC50(L1210/0): 0.69
Cem/hEnt-1; Homo sapiens, CCRF-CEM, read-out: IC50 Cem/hEnt-1
  IC50: 170 ± 60 nM
Cem/hEnt-1; read-out: IC50 Cem/hEnt-1 + NBMPR, in the presence of NBMPR
  IC50: 610 nM
Cem/hEnt-1; read-out: IC50 Cem/hEnt-1 + dipyridamole, in the presence of dipyridamole
  IC50: 260 nM
HeLa
  IC50: 240 ± 70 nM
Cem/0
  CC50: 230 ± 40 nM
  IC50: 230 ± 40 nM
L1210/0; [1]
  CC50: 17 ± 3 nM
L1210/0; L1210/0, Table 2, mycoplasma negative cells, read-out: CC50 L1210
  CC50: 29 nM
L1210/0; L1210/0, Table 6
  IC50: 17 ± 3 nM
L1210/0; L1210/0, Table 7
  IC50: 29 ± 1 nM
HeLa/TK^−
  IC50: 3.7 ± 0.1 µM
